Results as given in ChEMBL document CHEMBL1201862, “PubChem BioAssay data set” (2004).
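How tested: cells in 96-well plates exposed to compound for 48 hours at five concentrations. GI50 = concentration required for 50% inhibition of growth.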 Calls of active or inactive are those of the source. No stated cut-off is given here; in the data, active = GI50 up to about 1.1 µM and inactive = higher.

Columns and labels:
Assay in all cases: inhibition of tumour cell growth, NCI panel, 48 h
[1] = tested on: U-251
[2] = tested on: HCC 2998
[3] = tested on: SK-MEL-2
[4] = tested on: IGROV-1
[5] = tested on: SF-268
[6] = tested on: RXF 393
[7] = tested on: HT-29
[8] = tested on: SK-MEL-28
[9] = tested on: HOP-92
[10] = tested on: CCRF-CEM
[11] = tested on: SW-620
[12] = tested on: HL-60
[13] = tested on: SNB-19
[14] = tested on: SF-295
[15] = tested on: KM12
[16] = tested on: HCT-15
[17] = tested on: UACC-257
[18] = tested on: Malme-3M
[19] = tested on: A549
[20] = tested on: SK-MEL-5

| Structure (SMILES) | GI50 [1] | GI50 [2] | GI50 [3] | GI50 [4] | GI50 [5] | GI50 [6] | GI50 [7] | GI50 [8] | GI50 [9] | GI50 [10] | GI50 [11] | GI50 [12] | GI50 [13] | GI50 [14] | GI50 [15] | GI50 [16] [µM] | GI50 [17] | GI50 [18] | GI50 [19] | GI50 [20] |
| --- | --- | --- | --- | --- | --- | --- | --- | --- | --- | --- | --- | --- | --- | --- | --- | --- | --- | --- | --- | --- |
| Cc1c2cc[n+](C)cc2c(COC2OC(CO)C(O)C2O)c2c3ccccc3n(C)c12 (stereo not given) | 48.6 µM (inactive) | > 100 µM (inactive) | > 100 µM (inactive) | > 100 µM (inactive) | 15.8 µM (inactive) | > 100 µM (inactive) | > 100 µM (inactive) | 53 µM (inactive) | 77.6 µM (inactive) | > 87.9 µM (inactive) | > 100 µM (inactive) | > 100 µM (inactive) | 14.5 µM (inactive) | 57 µM (inactive) | > 100 µM (inactive) | > 100 | > 100 µM (inactive) | 62.1 µM (inactive) | 74.3 µM (inactive) | 61.8 µM (inactive) |
| C=CNC(=S)n1nc(-c2ccccc2NC(=O)C(F)(F)F)c(=O)n(C(=S)NC=C)c1=S | 34.9 µM (inactive) | 47.9 µM (inactive) | 73.3 µM (inactive) | 54 µM (inactive) | 15.4 µM (inactive) | 73.6 µM (inactive) | 18.6 µM (inactive) | > 100 µM (inactive) | 10.5 µM (inactive) | 24.9 µM (inactive) | 59.8 µM (inactive) | – | 28.6 µM (inactive) | 19.2 µM (inactive) | 29.3 µM (inactive) | 16.4 | – | 56.2 µM (inactive) | – | 13.3 µM (inactive) |
| Cc1c(-c2cc3n(n2)C(c2cccs2)C(C#N)=C(c2ccccc2)N3)c(=O)n(-c2ccccc2)n1C (stereo not given) | 32.7 µM (inactive) | > 100 µM (inactive) | 51.6 µM (inactive) | 87.7 µM (inactive) | > 100 µM (inactive) | 37.4 µM (inactive) | 43.7 µM (inactive) | > 100 µM (inactive) | 36 µM (inactive) | > 95.1 µM (inactive) | > 100 µM (inactive) | 48.9 µM (inactive) | > 100 µM (inactive) | > 74.3 µM (inactive) | 94.2 µM (inactive) | 84.1 | 49.2 µM (inactive) | > 100 µM (inactive) | > 100 µM (inactive) | 28.8 µM (inactive) |
| CNC(=O)OCc1nc(SC)n(C)c1CO | > 100 µM (inactive) | > 100 µM (inactive) | > 46.9 µM (inactive) | > 100 µM (inactive) | > 100 µM (inactive) | > 100 µM (inactive) | > 100 µM (inactive) | > 100 µM (inactive) | > 100 µM (inactive) | > 100 µM (inactive) | > 100 µM (inactive) | > 100 µM (inactive) | > 100 µM (inactive) | > 100 µM (inactive) | > 100 µM (inactive) | > 100 | > 100 µM (inactive) | 1.68 µM (inactive) | > 100 µM (inactive) | > 100 µM (inactive) |
| O=C1CC2(CCC(O)(c3ccccc3)C(C(=O)c3ccccc3)C2)C(=O)c2ccccc2N1 (stereo not given) | > 100 µM (inactive) | > 100 µM (inactive) | > 100 µM (inactive) | > 100 µM (inactive) | > 100 µM (inactive) | > 100 µM (inactive) | > 100 µM (inactive) | > 100 µM (inactive) | 93.5 µM (inactive) | 46.8 µM (inactive) | > 100 µM (inactive) | > 100 µM (inactive) | > 100 µM (inactive) | > 100 µM (inactive) | – | > 100 | > 100 µM (inactive) | > 100 µM (inactive) | > 100 µM (inactive) | > 100 µM (inactive) |
| CNc1cc2c(c3ccccc13)C(CCl)CN2C(=O)c1cc2cc(OC)c(OC)c(OC)c2[nH]1 (stereo not given) | 0.00191 µM (active) | < 0.01 µM (active) | 0.00785 µM (active) | 0.00243 µM (active) | 0.0017 µM (active) | < 0.01 µM (active) | 0.0013 µM (active) | 0.0122 µM (active) | 0.00484 µM (active) | 0.00053 µM (active) | 0.00144 µM (active) | 0.000123 µM (active) | 0.0124 µM (active) | 0.00155 µM (active) | 0.0038 µM (active) | 0.00137 | 0.00541 µM (active) | < 0.01 µM (active) | 0.00153 µM (active) | 0.00146 µM (active) |
| c1ccc2c(c1)c1ccccc1n2Cn1c2ccccc2c2ccccc21 | > 100 µM (inactive) | – | > 100 µM (inactive) | > 100 µM (inactive) | > 100 µM (inactive) | > 100 µM (inactive) | > 100 µM (inactive) | > 100 µM (inactive) | > 100 µM (inactive) | > 100 µM (inactive) | > 100 µM (inactive) | > 100 µM (inactive) | > 100 µM (inactive) | > 100 µM (inactive) | > 100 µM (inactive) | > 100 | > 100 µM (inactive) | > 100 µM (inactive) | > 100 µM (inactive) | > 100 µM (inactive) |
| C/C(=N\NC(=O)c1ccncc1)c1cccc(C(F)(F)F)c1 | > 10 µM (inactive) | > 10 µM (inactive) | – | > 10 µM (inactive) | > 10 µM (inactive) | – | > 10 µM (inactive) | > 10 µM (inactive) | > 10 µM (inactive) | > 10 µM (inactive) | > 10 µM (inactive) | > 10 µM (inactive) | – | – | > 10 µM (inactive) | > 10 | > 10 µM (inactive) | > 10 µM (inactive) | > 10 µM (inactive) | > 10 µM (inactive) |
| COc1ccc(C2c3cc4c(cc3OC(Nc3ccccc3)C2C)OCO4)cc1 (stereo not given) | 56.8 µM (inactive) | 67.9 µM (inactive) | > 100 µM (inactive) | 99.8 µM (inactive) | 42.9 µM (inactive) | 33.5 µM (inactive) | 31.7 µM (inactive) | > 100 µM (inactive) | 23.8 µM (inactive) | 14.1 µM (inactive) | 64.3 µM (inactive) | 22.2 µM (inactive) | > 100 µM (inactive) | 25.5 µM (inactive) | 28.6 µM (inactive) | 33.6 | 75.2 µM (inactive) | 63.5 µM (inactive) | 22.5 µM (inactive) | 79.4 µM (inactive) |
| CCOC(=O)/C=C(\C)c1ccc(C)cc1C | > 100 µM (inactive) | > 100 µM (inactive) | 45.2 µM (inactive) | > 100 µM (inactive) | > 100 µM (inactive) | 14.4 µM (inactive) | > 100 µM (inactive) | 21.9 µM (inactive) | 29.8 µM (inactive) | 49.2 µM (inactive) | 17.8 µM (inactive) | 2.89 µM (inactive) | > 100 µM (inactive) | > 100 µM (inactive) | 72.3 µM (inactive) | 29.9 | > 100 µM (inactive) | 26.1 µM (inactive) | > 100 µM (inactive) | 34.3 µM (inactive) |
| CCc1cc2c(oc3cc4ccccc4cc32)c(=O)[nH]1 | – | > 10 µM (inactive) | > 10 µM (inactive) | > 10 µM (inactive) | > 10 µM (inactive) | > 10 µM (inactive) | > 10 µM (inactive) | – | > 10 µM (inactive) | – | > 10 µM (inactive) | > 10 µM (inactive) | > 10 µM (inactive) | > 10 µM (inactive) | > 10 µM (inactive) | > 10 | > 10 µM (inactive) | > 10 µM (inactive) | > 10 µM (inactive) | – |
| N=C(N)c1csc([C@@H]2O[C@H](CO)[C@@H](O)[C@H]2O)n1 | > 100 µM (inactive) | > 100 µM (inactive) | > 100 µM (inactive) | > 100 µM (inactive) | > 100 µM (inactive) | > 100 µM (inactive) | – | > 100 µM (inactive) | – | > 100 µM (inactive) | > 100 µM (inactive) | > 100 µM (inactive) | > 100 µM (inactive) | > 100 µM (inactive) | > 100 µM (inactive) | > 100 | > 100 µM (inactive) | > 100 µM (inactive) | > 100 µM (inactive) | > 100 µM (inactive) |
| CCOC(=O)NC(=O)c1cn(C2CCCCC2)c(=O)n(C)c1=O | > 100 µM (inactive) | > 100 µM (inactive) | > 100 µM (inactive) | > 100 µM (inactive) | > 100 µM (inactive) | > 100 µM (inactive) | > 100 µM (inactive) | > 100 µM (inactive) | > 100 µM (inactive) | > 100 µM (inactive) | > 100 µM (inactive) | > 100 µM (inactive) | > 100 µM (inactive) | > 100 µM (inactive) | > 100 µM (inactive) | > 100 | > 100 µM (inactive) | > 100 µM (inactive) | > 100 µM (inactive) | > 100 µM (inactive) |
